From patent publication US4429127A, “Quinoline carboxylic acid derivative” (Kyorin Pharmaceutical Co., Ltd., priority 1981, dated 1984)
Values after ≈ are worked out from the molar mass of the structure shown.

Columns and labels:
[1] = system: E. coli ML4707; assay: MIC against the infecting strain (Table 2); assay type: cell-based; conditions: Escherichia coli; E. coli ML4707; read-out: MIC
Protocol: (§1) The minimum inhibitory concentration (MIC) of the compound (I) was determined by an agar dilution technique (the standard method of Japan Society of Chemotherapy) against standard strains of gram-positive and gram-negative bacteria.

[2] = system: Staphylococcus aureus Smith; assay: MIC against the infecting strain (Table 2); assay type: cell-based; conditions: Staphylococcus aureus Smith; read-out: MIC
Protocol: as §1

[3] = system: gram-positive bacteria; assay: In vitro antibacterial activity against gram-positive bacteria (in words); assay type: cell-based
Protocol: as §1

[4] = system: E. coli ML4707; assay: In vivo antibacterial activity, systemic infection in mice; design: species or system mice (male, ICR); conditions: Escherichia coli, ML4707, 168 h; mice, oral at 0 and 4 hrs. after infection; challenge 1.2 × 10^7 cells/animal in saline; 7 days survival; read-out: ED50
Protocol: (§2) The in vivo antibacterial activity of the compound (I) was determined in systemic infection in mice. The systemic infections were produced in male mice ICR (body weight, 19±2 g) by inoculating intraperitoneally with Staphylococcus aureus Smith and E. coli ML4707. The compounds were administered orally in divided doses at 0 and 4 hrs. after infection. The therapeutic effect of drugs was judged from the number of mice surviving after 7 days of observation. A comparison of in vivo antibacterial activity was made on the basis of the […] effective dose (ED50) calculated by the method of Litchfield and Wilcoxon.

[5] = system: Staphylococcus aureus Smith; assay: as above; design: species or system mice (male, ICR)
Protocol: as §2

[6] = Acute toxicity in mice; assay type: in vivo; conditions: for LD50 at 168 h: mouse, in vivo, male mice, 7 days observation
Description: Acute toxicity of the compound (I) was examined in mice (ICR strain, 7 weeks old). Observation period was 7 days after a single oral and intravenous administration.

[7] = system: P. aeruginosa IFO12689; assay: In vitro antibacterial activity (MIC, agar dilution); assay type: cell-based; conditions: Pseudomonas aeruginosa; P. aeruginosa IFO12689; inoculum 10^8 cells/ml; read-out: MIC
Protocol: as §1
(§3) Inoculum size: 10^8 cells/ml

[8] = system: S. pyogenes S-8; assay: as above; assay type: cell-based; conditions: Streptococcus pyogenes, S8; S. pyogenes S-8; inoculum 10^8 cells/ml; read-out: MIC
Protocol: as §1, §3

[9] = system: P. mirabilis IID994; assay: as above; assay type: cell-based; conditions: Proteus mirabilis, inoculum 10^8 cells/ml
Protocol: as §1, §3

[10] = system: Alcaligenes faecalis 0104002; assay: as above; assay type: cell-based; conditions: inoculum 10^8 cells/ml
Protocol: as §1, §3

[11] = system: Haemophilus influenzae IID986; assay: as above; assay type: cell-based; conditions: Haemophilus influenzae IID986; inoculum 10^8 cells/ml; read-out: MIC
Protocol: as §1, §3

[12] = system: Proteus vulgaris IFO3167; assay: as above; assay type: cell-based; conditions: Proteus vulgaris IFO3167; inoculum 10^8 cells/ml; read-out: MIC
Protocol: as §1, §3

[13] = system: Staphylococcus aureus 209P; assay: as above; assay type: cell-based; conditions: Staphylococcus aureus 209P; inoculum 10^8 cells/ml; read-out: MIC
Protocol: as §1, §3

[14] = system: S. pneumoniae IID552; assay: as above; assay type: cell-based; conditions: Streptococcus pneumoniae; S. pneumoniae IID552; inoculum 10^8 cells/ml; read-out: MIC
Protocol: as §1, §3

[15] = system: S. aureus IID670 (Terajima); assay: as above; assay type: cell-based; conditions: Staphylococcus aureus; S. aureus IID670 (Terajima); inoculum 10^8 cells/ml; read-out: MIC
Protocol: as §1, §3

[16] = system: Streptococcus pyogenes IID692; assay: as above; assay type: cell-based; conditions: Streptococcus pyogenes IID692; inoculum 10^8 cells/ml; read-out: MIC
Protocol: as §1, §3

[17] = system: Yersinia enterocolitica IID981; assay: as above; assay type: cell-based; conditions: inoculum 10^8 cells/ml
Protocol: as §1, §3

[18] = system: Pseudomonas aeruginosa V-1; assay: as above; assay type: cell-based; conditions: V1; Pseudomonas aeruginosa V-1; inoculum 10^8 cells/ml; read-out: MIC
Protocol: as §1, §3

[19] = system: Acinetobacter enitratus IID876; assay: as above; assay type: cell-based; conditions: inoculum 10^8 cells/ml
Protocol: as §1, §3

[20] = system: E. coli NIHJ JC-2; assay: as above; assay type: cell-based; conditions: Escherichia coli, NIHJJC2; E. coli NIHJ JC-2; inoculum 10^8 cells/ml; read-out: MIC
Protocol: as §1, §3

[21] = system: P. morganii IID602; assay: as above; assay type: cell-based; conditions: Morganella morganii, inoculum 10^8 cells/ml
Protocol: as §1, §3

[22] = system: Enterobacter cloacae IID977; assay: as above; assay type: cell-based; conditions: inoculum 10^8 cells/ml
Protocol: as §1, §3

[23] = system: Serratia marcescens IID618; assay: as above; assay type: cell-based; conditions: inoculum 10^8 cells/ml
Protocol: as §1, §3

[24] = system: Klebsiella pneumoniae IFO3512; assay: as above; assay type: cell-based; conditions: Klebsiella pneumoniae IFO3512; inoculum 10^8 cells/ml; read-out: MIC
Protocol: as §1, §3

[25] = system: Bacillus subtilis PCI 219; assay: as above; assay type: cell-based; conditions: PCI219; Bacillus subtilis PCI 219; inoculum 10^8 cells/ml; read-out: MIC
Protocol: as §1, §3

[26] = system: Shigella sonnei IID969; assay: as above; assay type: cell-based; conditions: inoculum 10^8 cells/ml
Protocol: as §1, §3

[27] = system: Citrobacter freundii IID976; assay: as above; assay type: cell-based; conditions: inoculum 10^8 cells/ml
Protocol: as §1, §3

[28] = system: S. epidermidis IID866; assay: as above; assay type: cell-based; conditions: Staphylococcus epidermidis, inoculum 10^8 cells/ml
Protocol: as §1, §3

[29] = system: E. coli ATCC10536; assay: as above; assay type: cell-based; conditions: Escherichia coli; E. coli ATCC10536; inoculum 10^8 cells/ml; read-out: MIC
Protocol: as §1, §3

[30] = system: Salmonella enteritidis IID604; assay: as above; assay type: cell-based; conditions: Salmonella enterica; Salmonella enteritidis IID604; inoculum 10^8 cells/ml; read-out: MIC
Protocol: as §1, §3

[31] = system: S. faecalis IID682; assay: as above; assay type: cell-based; conditions: Enterococcus faecalis; S. faecalis IID682; inoculum 10^8 cells/ml; read-out: MIC
Protocol: as §1, §3

[32] = Metabolism when administered to animals; assay type: in vivo

In the case of CCn1cc(C(=O)O)c(=O)c2cc(F)c(N3CCN(Cc4ccc(N)cc4)CC3)c(F)c21 [compound (I), 7-[4-(p-aminobenzyl)-1-piperazinyl]-1-ethyl-6,8-difluoro-1,4-dihydro-4-oxoquinoline-3-carboxylic acid], the MIC [1] is reported as 0.39 µg/mL (≈ 0.881 µM), the MIC [2] is reported as 0.05 µg/mL (≈ 0.113 µM) and the “Antibacterial activity against gram-positive bacteria containing Streptococcus spp., in words” value [3] is reported as “more potent against gram-positive bacteria containing Streptococcus spp”. For the same compound, the ED50 [4] was 13.8 mg/kg, the “Potency superior to nalidixic acid (in vivo)” value ([5]; S. aureus Smith, versus nalidixic acid) was 172 times and the “In vivo antibacterial activity, in words” value ([5]; S. aureus Smith, versus nalidixic acid and pipemidic acid) was “significantly more effective than that of nalidixic acid and pipemidic acid”. For the same compound, the “Potency superior to pipemidic acid (in vivo)” value ([5]; S. aureus Smith, versus pipemidic acid) was 62 times, the ED50 ([5]; Staphylococcus aureus, 168 h, mice, oral at 0 and 4 hrs. after infection, challenge 2.4 × 10^5 cells/animal in BHI containing mucin, 7 days survival, read-out: ED50) was 3.7 mg/kg and the “Acute toxicity, in words” value ([6]; mice, single oral and intravenous administration) was “low toxicity”. The LD50 at 168 h ([6]; iv) was 250 to 300 mg/kg, the LD50 at 168 h ([6]; po) was greater than 4000 mg/kg and the MIC [7] was 25 µg/mL (≈ 56.5 µM). It also gave an MIC [8] of 0.78 µg/mL (≈ 1.76 µM), an MIC [9] of 1.56 µg/mL (≈ 3.53 µM) and an MIC [10] of 3.13 µg/mL (≈ 7.07 µM). It also gave an MIC [11] of 0.2 µg/mL (≈ 0.452 µM), an MIC [12] of 1.56 µg/mL (≈ 3.53 µM) and an MIC [13] of 0.1 µg/mL (≈ 0.226 µM). For the same compound, the MIC [14] was 0.39 µg/mL (≈ 0.881 µM), the MIC [15] was 0.2 µg/mL (≈ 0.452 µM) and the MIC [16] was 0.78 µg/mL (≈ 1.76 µM). For the same compound, the MIC [17] was 1.56 µg/mL (≈ 3.53 µM), the MIC [18] was 12.5 µg/mL (≈ 28.3 µM) and the MIC [19] was 0.78 µg/mL (≈ 1.76 µM). It also gave an MIC [20] of 0.2 µg/mL (≈ 0.452 µM), an MIC [21] of 1.56 µg/mL (≈ 3.53 µM) and an MIC [22] of 1.56 µg/mL (≈ 3.53 µM). The MIC [23] was 3.13 µg/mL (≈ 7.07 µM), the MIC [24] was 0.1 µg/mL (≈ 0.226 µM) and the MIC [25] was 0.1 µg/mL (≈ 0.226 µM). For the same compound, the MIC [26] was 0.39 µg/mL (≈ 0.881 µM), the MIC [27] was 1.56 µg/mL (≈ 3.53 µM) and the MIC [28] was 0.2 µg/mL (≈ 0.452 µM). For the same compound, the MIC [29] was 0.39 µg/mL (≈ 0.881 µM), the MIC [30] was 1.56 µg/mL (≈ 3.53 µM) and the MIC [31] was 0.78 µg/mL (≈ 1.76 µM). The “Metabolism, in words” value [32] was “metabolized in part to 1-ethyl-6,8-difluoro-1,4-dihydro-4-oxo-7-(1-piperazinyl)quinoline-3-carboxylic acid”.
